In patent US8754057B2, “Inhibition of apoptosis-specific eIF-5A(eIF-5A1″) with antisense oligonucleotides and siRNA as anti-inflammatory therapeutics” (Senesco Technologies, Inc., priority 2003, dated 2014):

How the values were obtained:
[1] = tested on: lamina cribrosa cell line #506; assay: Hoescht staining apoptosis of siRNA-transfected lamina cribrosa cells treated with TNF-α and camptothecin; type: cell-based, human; conditions: LC #506, 72 h after siRNA transfection, 24 h 10 ng/ml TNF-α plus 50 μM camptothecin
Protocol: Lamina cribrosa cell line #506 cells were seeded at 7500 cells per well onto an 8-well culture slide. Three days later the LC cells were transfected with either GAPDH siRNA, apoptosis-specific eIF-5A siRNAs #1-4 (SEQ ID NO:30-33), or control siRNA #5 (SEQ ID NO:34). 72 hours after transfection, the transfected cells were treated with 10 ng/ml TNF-α plus 50 μM camptothecin. Twenty-four hours later the cells were stained with Hoescht 33258 and viewed by fluorescence microscopy using a UV filter. Cells with brightly stained condensed or fragmented nuclei were counted as apoptotic. This graph represents the average of n=4 independent experiments.
Following transfection, RKO and lamina cribrosa cells were incubated for 72 hours prior to collection of cellular extract for Western blot analysis. In order to determine the effectiveness of the siRNAs directed against apoptosis-specific eIF-5A to block apoptosis, lamina cribrosa cells were treated with 50 μM of camptothecin (Sigma) and 10 ng/ml of TNF-α (Leinco Technologies) to induce apoptosis either 48 or 72 hours after transfection. The cells were stained with Hoescht either 24 or 48 hours later in order to determine the percentage of cells undergoing apoptosis.
Small inhibitory RNAs (siRNAs) directed against human apoptosis-specific eIF-5A were used to specifically suppress expression of eIF5A in lamina cribrosa cells. Six siRNAs were generated by in vitro transcription using the Silencer™ siRNA Construction Kit (Ambion Inc.), Four siRNAs were generated against human apoptosis-specific eIF-5A (siRNAs #1 to #4). […] The siRNAs were generated according to the manufacturer's protocol. The eIF5A and control siRNA targets had the following sequences: siRNA #1 5′ […] 3′ (SEQ ID NO: 81); siRNA #2 5′ […] 3′ (SEQ ID NO: 82); siRNA #3 5′ […] 3′ (SEQ ID NO: 83); siRNA #4 5′ […] 3′ (SEQ ID NO: 84); siRNA #5′ […] 3′ (SEQ ID NO: 85). Lamina cribrosa cells were transfected with siRNA using LipofectAMINE 2000.
Lamina cribrosa cells were transfected when cell confluence was at 40 to 70% and were generally seeded onto 8-well culture slides at 7500 cells per well three days prior to transfection. Transfection medium sufficient for one well of an 8-well culture slide was prepared by diluting 25.5 proles of siRNA to a final volume of 21.2 μl in Opti-Mem (Sigma). 0.425 μl of Lipofectamine 2000 was diluted to a final volume of 21.2 μl in Opti-Mem and incubated for 7 to 10 minutes at room temperature. The diluted Lipofectamine 2000 mixture was then added to the diluted siRNA mixture and incubated together at room temperature for 20 to 30 minutes, The cells were washed once with serum-free media before adding 135 μl of serum-free media to the cells and overlaying 42.4 μl of transfection medium. […]

[2] = tested on: lamina cribrosa cell line #517; assay: as above; type: cell-based, human; conditions: 72 h after siRNA transfection, 24 h TNF-α plus camptothecin
Protocol: Lamina cribrosa cell line #517 cells were seeded at 7500 cells per well onto an 8-well culture slide. Three days later the LC cells were transfected with either apoptosis-specific eIF-5A siRNA #1 (SEQ ID NO:30) or control siRNA #5 (SEQ ID NO:34). 72 hours after transfection, the transfected cells were treated with 10 ng/ml TNF-α plus 50 μM camptothecin. Twenty-four hours later the cells were stained with Hoescht 33258 and viewed by fluorescence microscopy using a UV filter. Cells with brightly stained condensed or fragmented nuclei were counted as apoptotic. The results of two independent experiments are represented here.
Small inhibitory RNAs (siRNAs) directed against human apoptosis-specific eIF-5A were used to specifically suppress expression of eIF5A in lamina cribrosa cells. Six siRNAs were generated by in vitro transcription using the Silencer™ siRNA Construction Kit (Ambion Inc.), Four siRNAs were generated against human apoptosis-specific eIF-5A (siRNAs #1 to #4). […] The siRNAs were generated according to the manufacturer's protocol. […]
Transfected cells that had been treated with TNF-α and camptothecin for 24 hours were stained with Hoescht 33258 in order to determine the percentage of cells undergoing apoptosis. […] Cells with brightly stained or fragmented nuclei were scored as apoptotic. A minimum of 200 cells were counted per well. […]

## siRNA #1: siRNA against human apoptosis-specific eIF-5A (SEQ ID NO:30); target 5′ AAAGGAATGACTTCCAGCTGA 3′ (SEQ ID NO: 81) (AAAGGAAUGACUUCCAGCUGATT; RNA, all phosphodiester, T or U not given here; listed as Homo sapiens)
[1]
  reduce apoptosis of LC cells: 59%
[2]
  reduce apoptosis of the LC line #517: 53%
